Results: patent publication US9309242B2, “Substituted pyrido[2,3-b]pyrazines as FGFR kinase inhibitors” (priority 2011, dated 2016)
Where two headings read alike, the source gives them in different places.

Key:
FGFR1 (h) = FGFR1 (h) (Homo sapiens, UniProt P11362); test: FGFR1 (enzymatic assay), TR-FRET; assay type: biochemical; details: average values if tested multiple times, read-out: FGFR 1 pIC50 (converted)
FGFR2 (h) = FGFR2 (h) (Homo sapiens, UniProt P21802); test: FGFR2 (enzymatic assay), TR-FRET; assay type: biochemical; details: average values if tested multiple times
Sequence of FGFR2 (h) (P21802 22-821): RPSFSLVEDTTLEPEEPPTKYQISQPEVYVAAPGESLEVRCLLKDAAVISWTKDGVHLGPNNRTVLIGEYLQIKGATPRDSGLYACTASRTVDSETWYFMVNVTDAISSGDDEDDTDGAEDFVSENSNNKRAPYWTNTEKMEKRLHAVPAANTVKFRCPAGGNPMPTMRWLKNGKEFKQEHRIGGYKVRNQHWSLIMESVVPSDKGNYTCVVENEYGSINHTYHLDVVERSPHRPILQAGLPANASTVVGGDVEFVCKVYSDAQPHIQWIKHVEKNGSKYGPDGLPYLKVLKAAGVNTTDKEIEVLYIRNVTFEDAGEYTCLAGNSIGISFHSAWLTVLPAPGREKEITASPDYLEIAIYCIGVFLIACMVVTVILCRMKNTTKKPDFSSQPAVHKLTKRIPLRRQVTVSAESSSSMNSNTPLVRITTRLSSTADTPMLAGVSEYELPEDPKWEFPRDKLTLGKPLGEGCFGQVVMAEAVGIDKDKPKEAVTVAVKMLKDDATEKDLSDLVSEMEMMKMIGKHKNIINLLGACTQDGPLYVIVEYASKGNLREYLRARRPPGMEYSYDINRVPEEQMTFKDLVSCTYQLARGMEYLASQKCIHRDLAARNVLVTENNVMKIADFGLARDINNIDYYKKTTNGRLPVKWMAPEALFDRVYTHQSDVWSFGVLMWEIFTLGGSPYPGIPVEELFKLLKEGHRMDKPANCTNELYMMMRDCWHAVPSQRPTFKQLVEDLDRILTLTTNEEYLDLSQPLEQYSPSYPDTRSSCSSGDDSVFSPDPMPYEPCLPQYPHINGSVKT
Procedure: In a final reaction volume of 30 μL, FGFR2 (h) (150 ng/ml) was incubated with 50 mM HEPES pH 7.5, 6 mM MnCl2, 1 mM DTT, 0.1 mM Na3VO4, 0.01% Triton-X-100, 500 nM Btn-Flt3 and 0.4 μM ATP in the presence of compound (1% DMSO final).

[1] = biological target: Ba/F3-FGFR4-transfected cells (Homo sapiens, UniProt P22455); test: Ba/F3-FGFR4 cellular proliferation assay, Alamar Blue; assay type: cell-based
Sequence of Ba/F3-FGFR4-transfected cells (P22455 whole entry, change not shown): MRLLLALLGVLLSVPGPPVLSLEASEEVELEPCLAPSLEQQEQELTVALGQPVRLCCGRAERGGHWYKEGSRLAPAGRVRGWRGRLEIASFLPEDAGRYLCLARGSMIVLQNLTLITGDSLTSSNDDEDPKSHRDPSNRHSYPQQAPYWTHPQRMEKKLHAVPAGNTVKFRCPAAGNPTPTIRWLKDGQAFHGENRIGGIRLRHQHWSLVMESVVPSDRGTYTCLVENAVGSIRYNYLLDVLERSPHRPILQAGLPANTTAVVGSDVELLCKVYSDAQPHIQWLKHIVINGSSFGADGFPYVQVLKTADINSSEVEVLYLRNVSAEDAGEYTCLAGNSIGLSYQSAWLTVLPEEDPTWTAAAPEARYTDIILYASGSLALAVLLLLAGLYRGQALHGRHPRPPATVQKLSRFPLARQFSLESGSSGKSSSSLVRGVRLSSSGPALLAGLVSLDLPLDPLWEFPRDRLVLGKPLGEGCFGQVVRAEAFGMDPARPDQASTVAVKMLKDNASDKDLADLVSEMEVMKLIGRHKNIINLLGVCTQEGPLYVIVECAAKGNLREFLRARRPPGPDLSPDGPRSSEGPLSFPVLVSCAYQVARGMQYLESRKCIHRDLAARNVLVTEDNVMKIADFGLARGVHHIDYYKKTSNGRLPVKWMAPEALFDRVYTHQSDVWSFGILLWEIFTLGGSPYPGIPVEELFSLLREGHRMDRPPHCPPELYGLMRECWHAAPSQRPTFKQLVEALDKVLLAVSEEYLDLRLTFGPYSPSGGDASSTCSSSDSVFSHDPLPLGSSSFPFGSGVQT
Procedure: Ba/F3-FGFR4 (Cellular Proliferation Assay)
(§1) In a 384 well plate, 100 n1 of compound dilution in DMSO was sprayed before adding 50 μl cell culture medium (phenol red free RPMI-1640, 10% FBS, 2 mM L-Glutamine and 50 μg/ml Gentamycin) containing 20000 cells per well of Ba/F3-FGFR4-transfected cells. Cells were put in an incubator at 37° C. and 5% CO2. After 24 hours, 10 μl of Alamar Blue solution (0.5 mM K3Fe(CN)6, 0.5 mM K4Fe(CN)6, 0.15 mM Resazurin and 100 mM Phosphate Buffer) was added to the wells, incubated for 4 hours at 37° C. and 5% CO2 before RFU's (Relative Fluorescence Units) (ex. 540 nm., em. 590 nm.) were measured in a fluororescence plate reader.

[2] = biological target: T1, Ba/F3-FGFR1-transfected cells (Homo sapiens, UniProt P11362); test: Ba/F3-FGFR1 (minus IL3) cellular proliferation assay, Alamar Blue; assay type: cell-based
T1 construct: BAF3-FGFR1 (MIN IL3) pIC50; other: minus IL3
Procedure: (§2) Ba/F3-FGFR1 (Minus IL3 or Plus IL3) (Cellular Proliferation Assay)
as §1, with “nl” for “n1”, “Ba/F3-FGFR1-transfected” for “Ba/F3-FGFR4-transfected”

[3] = biological target: T2, Ba/F3-FGFR3-transfected cells (Homo sapiens, UniProt P22607); test: Ba/F3-FGFR3 (minus IL3) cellular proliferation assay, Alamar Blue; assay type: cell-based
T2 construct: BAF3-FGFR3 (MIN IL3) pIC50; other: minus IL3
T2 sequence (P22607 whole entry, change not shown): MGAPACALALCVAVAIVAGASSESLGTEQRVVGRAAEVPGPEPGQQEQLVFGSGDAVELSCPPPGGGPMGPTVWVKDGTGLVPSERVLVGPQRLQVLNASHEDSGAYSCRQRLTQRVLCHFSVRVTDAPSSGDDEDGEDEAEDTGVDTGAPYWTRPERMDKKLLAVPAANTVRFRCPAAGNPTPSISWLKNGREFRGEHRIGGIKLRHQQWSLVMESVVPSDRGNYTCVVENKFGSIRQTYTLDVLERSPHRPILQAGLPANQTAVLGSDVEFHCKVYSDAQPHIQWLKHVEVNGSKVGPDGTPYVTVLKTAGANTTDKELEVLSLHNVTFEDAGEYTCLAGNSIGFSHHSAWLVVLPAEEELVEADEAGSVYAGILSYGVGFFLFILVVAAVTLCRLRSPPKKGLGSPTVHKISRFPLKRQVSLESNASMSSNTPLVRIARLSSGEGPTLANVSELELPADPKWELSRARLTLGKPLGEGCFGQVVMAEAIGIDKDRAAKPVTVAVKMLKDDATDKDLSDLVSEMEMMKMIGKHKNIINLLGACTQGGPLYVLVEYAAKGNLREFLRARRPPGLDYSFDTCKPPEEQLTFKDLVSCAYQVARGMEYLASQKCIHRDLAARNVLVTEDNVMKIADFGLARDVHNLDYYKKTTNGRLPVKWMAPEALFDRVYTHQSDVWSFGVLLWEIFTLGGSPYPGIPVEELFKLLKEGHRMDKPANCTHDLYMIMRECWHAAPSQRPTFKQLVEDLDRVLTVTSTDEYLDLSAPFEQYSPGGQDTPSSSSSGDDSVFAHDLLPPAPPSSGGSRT
Procedure: (§3) Ba/F3-FGFR3 (Minus IL3 or Plus IL3) (Cellular Proliferation Assay)
as §1, with “nl” for “n1”, “Ba/F3-FGFR3-transfected” for “Ba/F3-FGFR4-transfected”, “reader. […]” for “reader.”

[4] = system: Ba/F3-FGFR1-transfected cells; test: Ba/F3-FGFR1 (plus IL3) cellular proliferation assay, counterscreen with 10 ng/ml murine IL3; assay type: cell-based; details: read-out: BAF3-FGFR1 (PLUS IL3) pIC50 (converted)
Procedure: as §2
as §1, with “nl” for “n1”, “Ba/F3-FGFR1-transfected” for “Ba/F3-FGFR4-transfected”
(§4) As a counterscreen the same experiment was performed in the presence of 10 ng/ml murine IL3.

[5] = biological target: T3, Ba/F3-KDR-transfected cells (Homo sapiens, UniProt P35968); test: Ba/F3-KDR (minus IL3) cellular proliferation assay, Alamar Blue; assay type: cell-based
T3 construct: BAF3-KDR (MIN IL3) pIC50; other: minus IL3
T3 sequence (P35968 whole entry, change not shown): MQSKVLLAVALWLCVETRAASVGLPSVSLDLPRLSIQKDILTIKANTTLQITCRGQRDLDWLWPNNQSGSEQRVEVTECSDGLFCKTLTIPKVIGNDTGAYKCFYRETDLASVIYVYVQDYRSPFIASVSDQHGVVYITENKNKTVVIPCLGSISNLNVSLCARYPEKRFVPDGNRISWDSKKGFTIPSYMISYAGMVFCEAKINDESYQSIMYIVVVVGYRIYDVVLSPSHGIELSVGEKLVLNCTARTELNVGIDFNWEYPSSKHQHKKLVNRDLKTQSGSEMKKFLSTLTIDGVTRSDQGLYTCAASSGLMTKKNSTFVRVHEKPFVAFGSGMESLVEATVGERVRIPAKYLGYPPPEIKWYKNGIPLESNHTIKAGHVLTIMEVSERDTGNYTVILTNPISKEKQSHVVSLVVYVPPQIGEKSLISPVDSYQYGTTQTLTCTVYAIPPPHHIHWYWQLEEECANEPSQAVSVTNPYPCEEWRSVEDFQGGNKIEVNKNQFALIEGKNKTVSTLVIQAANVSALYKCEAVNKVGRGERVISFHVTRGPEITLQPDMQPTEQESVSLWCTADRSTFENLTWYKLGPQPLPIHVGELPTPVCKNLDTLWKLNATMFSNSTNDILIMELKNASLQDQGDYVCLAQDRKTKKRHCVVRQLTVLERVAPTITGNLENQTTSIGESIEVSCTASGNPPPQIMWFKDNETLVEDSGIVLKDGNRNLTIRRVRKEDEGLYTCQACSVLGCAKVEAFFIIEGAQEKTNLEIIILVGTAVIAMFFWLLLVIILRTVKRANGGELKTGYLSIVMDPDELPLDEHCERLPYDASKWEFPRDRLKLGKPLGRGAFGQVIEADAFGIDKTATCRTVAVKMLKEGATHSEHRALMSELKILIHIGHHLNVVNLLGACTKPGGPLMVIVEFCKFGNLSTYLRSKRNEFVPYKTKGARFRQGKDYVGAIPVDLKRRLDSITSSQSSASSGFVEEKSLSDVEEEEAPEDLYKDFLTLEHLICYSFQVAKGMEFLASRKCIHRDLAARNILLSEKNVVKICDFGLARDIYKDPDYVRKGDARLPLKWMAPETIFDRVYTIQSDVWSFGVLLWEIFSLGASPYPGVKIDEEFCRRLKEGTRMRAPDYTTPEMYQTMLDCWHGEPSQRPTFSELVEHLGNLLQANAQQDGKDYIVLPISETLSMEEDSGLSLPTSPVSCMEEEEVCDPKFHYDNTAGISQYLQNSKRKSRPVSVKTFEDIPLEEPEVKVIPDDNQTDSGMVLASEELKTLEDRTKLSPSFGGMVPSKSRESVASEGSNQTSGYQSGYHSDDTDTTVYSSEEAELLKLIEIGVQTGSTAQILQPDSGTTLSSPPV
Procedure: Ba/F3-KDR (Minus IL3 or Plus IL3) (Cellular Proliferation Assay)
as §1, with “Ba/F3-KDR-transfected” for “Ba/F3-FGFR4-transfected”, “reader. […]” for “reader.”

FGFR3 (h) = FGFR3 (h) (Homo sapiens, UniProt P22607); test: FGFR3 (enzymatic assay), TR-FRET; assay type: biochemical; details: average values if tested multiple times, read-out: FGFR 3 pIC50 (converted)
From the text: Time-Resolved Fluorescence Resonance Energy Transfer (TR-FRET) signal (ex340 nm.

[6] = system: Ba/F3-FGFR3-transfected cells; test: Ba/F3-FGFR3 (plus IL3) cellular proliferation assay, counterscreen with 10 ng/ml murine IL3; assay type: cell-based; details: read-out: BAF3-FGFR3 (PLUS IL3) pIC50 (converted)
Procedure: as §3
as §1, with “nl” for “n1”, “Ba/F3-FGFR3-transfected” for “Ba/F3-FGFR4-transfected”
as §4

KDR (h) = KDR (h) (Homo sapiens, UniProt P35968); test: KDR (VEGFR2) (enzymatic assay), TR-FRET; assay type: biochemical; details: average values if tested multiple times, read-out: VEGFR 2 (KDR) pIC50 (converted)
Procedure: KDR (VEGFR2) (Enzymatic Assay)
In a final reaction volume of 30 μL, KDR (h) (150 ng/ml) was incubated with 50 mM HEPES pH 7.5, 6 mM MnCl2, 1 mM DTT, 0.1 mM Na3VO4, 0.01% Triton-X-100, 500 nM Btn-Flt3 and 3 μM ATP in the presence of compound (1% DMSO final). After incubation for 120 minutes at room temperature the reaction was stopped with 2.27 nM EU-anti P-Tyr, 7 mM EDTA, 31.25 nM SA-XL-665 and 0.02% BSA which was present for 60 minutes at room temperature. Time-Resolved Fluorescence Resonance Energy Transfer (TR-FRET) signal (ex340 nm. Em 620 nm, em 655 nm) was measured afterwards and results are expressed in RFU (Relative Fluorescence Units).

FGFR4 (h) = FGFR4 (h) (Homo sapiens, UniProt P22455); test: FGFR4 (enzymatic assay), TR-FRET; assay type: biochemical; details: FGFR 4 pIC50, enzymatic assay; average values if tested multiple times
Sequence of FGFR4 (h) (P22455 22-802): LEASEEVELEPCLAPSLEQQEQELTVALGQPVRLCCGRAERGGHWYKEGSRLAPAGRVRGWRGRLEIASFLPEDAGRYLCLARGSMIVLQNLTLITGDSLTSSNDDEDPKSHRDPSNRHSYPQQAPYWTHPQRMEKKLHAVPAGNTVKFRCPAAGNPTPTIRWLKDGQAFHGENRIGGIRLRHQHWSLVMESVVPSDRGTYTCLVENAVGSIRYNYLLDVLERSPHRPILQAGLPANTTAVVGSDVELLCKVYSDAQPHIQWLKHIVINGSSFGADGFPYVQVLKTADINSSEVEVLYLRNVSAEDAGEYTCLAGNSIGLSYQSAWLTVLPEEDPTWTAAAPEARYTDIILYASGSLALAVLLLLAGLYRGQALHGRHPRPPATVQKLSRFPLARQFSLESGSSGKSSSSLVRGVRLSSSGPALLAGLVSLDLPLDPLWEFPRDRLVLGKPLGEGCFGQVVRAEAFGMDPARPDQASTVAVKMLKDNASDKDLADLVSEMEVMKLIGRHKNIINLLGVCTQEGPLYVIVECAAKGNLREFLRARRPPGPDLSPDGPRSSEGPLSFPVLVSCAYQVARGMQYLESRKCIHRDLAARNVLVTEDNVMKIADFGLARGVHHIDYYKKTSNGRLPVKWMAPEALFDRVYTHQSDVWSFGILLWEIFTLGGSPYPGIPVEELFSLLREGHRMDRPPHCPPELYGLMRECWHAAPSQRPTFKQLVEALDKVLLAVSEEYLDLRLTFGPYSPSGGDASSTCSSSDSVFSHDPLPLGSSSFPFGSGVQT

[7] = enzymatic assay, read-out: FGFR 2 pIC50 (converted)
[8] = plus IL3 (10 ng/ml murine IL3, counterscreen)

| Compound | IC50 (FGFR1 (h)) [nM] | IC50 (FGFR2 (h); FGFR 2 pIC50, enzymatic assay) [nM] | BAF3-FGFR4 pIC50 [1] | BAF3-FGFR1 (MIN IL3) pIC50 [2] | BAF3-FGFR3 (MIN IL3) pIC50 [3] | IC50 [4] [µM] | BAF3-KDR (MIN IL3) pIC50 [5] | IC50 (FGFR3 (h)) [nM] | IC50 [6] [µM] | IC50 (KDR (h)) [nM] | IC50 (FGFR4 (h)) [nM] | IC50 (FGFR2 (h); [7]) [nM] | IC50 [4, 8] [µM] | IC50 [6, 8] [µM] |
| --- | --- | --- | --- | --- | --- | --- | --- | --- | --- | --- | --- | --- | --- | --- |
| COc1cc(OC)cc(N(CCNC(C)C)c2ccc3ncc(-c4cnn(C)c4)nc3n2)c1 [Compound 1] | 5.01 | 25.1 | ~7.06 | 8.5 | 8.1 | > 10 | 5.6 | 5.01 | > 10 | 251 | 25.1 |  |  |  |
| COc1cc(OC)c(F)c(N(CCNC(C)C)c2ccc3ncc(-c4cnn(C)c4)nc3n2)c1 [Compound 2] | 2 |  | 7.64 | 8.3 | 8.0 | > 10 | 6.2 | 3.16 | > 10 | 79.4 | 7.94 | 5.01 |  |  |
| COc1cc(OC)c(F)c(/N=c2\ccc3ncc(-c4cnn(C)c4)nc3n2CCNC(C)C)c1F [Compound 6] | 1 |  |  | 8.0 | 7.6 |  | 5.7 | 3.16 |  | 50.1 | 5.01 | 5.01 | > 10 | > 10 |
| COc1cc(OC)cc(N(CC(O)C(F)(F)F)c2ccc3ncc(-c4cnn(C)c4)nc3n2)c1 (centres unmarked) [Compound 8] | 1.26 |  | 6.66 | 7.6 | 7.6 |  | 5.3 | 2 |  | 126 | 3.16 | 6.31 | > 10 | > 10 |
| COc1cc(OC)c(F)c(N(Cc2ncccn2)c2ccc3ncc(-c4cnn(C)c4)nc3n2)c1F [Compound 11] | 50.1 |  | ~7.02 | 7.4 |  |  | 6.3 | 7.08 |  | 398 | 20 | 50.1 | > 10 | > 10 |
| COc1cc(OC)cc(N(Cc2ncccn2)c2ccc3ncc(-c4cnn(C)c4)nc3n2)c1 [Compound 12] | 1.58 |  | 6.26 | 7.3 | 7.1 |  | 5.5 | 2.51 |  | 39.8 | 12.6 | 3.98 | > 10 | > 10 |
| COc1cc(OC)cc(N(CCCO)c2ccc3ncc(-c4cnn(C)c4)nc3n2)c1 [Compound 18] | 2 |  | ~6.64 | 7.4 | 7.3 |  | 5.5 | 1 |  | 50.1 | 3.16 | 3.98 | > 10 | > 10 |
| COc1cc(/N=c2\ccc3ncc(-c4cnn(C)c4)nc3n2CCCO)cc(OC)c1 [Compound 19] | 0.398 |  |  | 8.0 | 8.0 |  | 6.4 | 0.316 |  | 5.01 | 0.398 | 1.26 | > 10 | > 10 |
| COc1cc(OC)cc(N(CCO)c2ccc3ncc(-c4cnn(C)c4)nc3n2)c1 [Compound 21] | 2 |  | 6.69 | 7.3 | 7.3 |  | 5.6 | 0.794 |  | 63.1 | 5.01 | 3.98 | > 10 | > 10 |
| COc1cc(OC)c(F)c(N(Cc2ncc[nH]2)c2ccc3ncc(-c4cnn(C)c4)nc3n2)c1F [Compound 25] | 7.94 |  | ~8.23 | 8.8 | 8.5 |  | 6.7 | 2.51 |  | 79.4 | 3.55 | 14.1 | 6.31 | > 10 |
